From ChEMBL document CHEMBL3885881, “DrugMatrix”

Species on record: Rattus norvegicus
Test: DrugMatrix - Regimen: Daily Repeat
Assay type: toxicity, organism-based, Sprague-Dawley
Parameters: regimen Daily Repeat, gender Male, age 6-8 weeks
Conditions: in vivo, po, route oral GAVAGE, […]; for ABSOLUTE BASOPHIL / ABSOLUTE EOSINOPHIL / ABSOLUTE LYMPHOCYTE / ABSOLUTE MONOCYTE / ABSOLUTE SEGMENTED NEUTROPHIL / BASOPHIL / EOSINOPHIL / ERYTHROCYTE COUNT / HEMATOCRIT / HEMOGLOBIN / LEUKOCYTE COUNT / LYMPHOCYTE / MEAN CORPUSCULAR HEMOGLOBIN / MEAN CORPUSCULAR HEMOGLOBIN CONCENTRATION / MEAN CORPUSCULAR VOLUME / MONOCYTE / NEUTROPHIL / NUCLEATED RED BLOOD CELLS / PLATELET COUNT: tissue Blood; for ALANINE AMINOTRANSFERASE / ALBUMIN / ALKALINE PHOSPHATASE / ASPARTATE AMINOTRANSFERASE / BLOOD UREA NITROGEN / CARBON DIOXIDE / CHLORIDE / CHOLESTEROL / CREATINE PHOSPHOKINASE / CREATININE / GLUCOSE / LACTATE DEHYDROGENASE / LIPASE / PHOSPHORUS / POTASSIUM / SODIUM / TOTAL BILIRUBIN / TOTAL PROTEIN / URIC ACID: tissue Plasma
[1] = 0 mg/kg, 72 h, dose level Control, time 3 day
[2] = 0 mg/kg, 120 h, dose level Control, time 5 day
[3] = 30 mg/kg, 72 h, dose level Low, time 3 day

COC1=CC(=O)C[C@@H](C)[C@]12Oc1c(Cl)c(OC)cc(OC)c1C2=O [GRISEOFULVIN]
ABSOLUTE BASOPHIL [1]: 0 CELLS/uL
ABSOLUTE EOSINOPHIL [1]: 0 CELLS/uL
ABSOLUTE LYMPHOCYTE [1]: 14687.67 CELLS/uL
ABSOLUTE MONOCYTE [1]: 164 CELLS/uL
ABSOLUTE SEGMENTED NEUTROPHIL [1]: 1748.33 CELLS/uL
BASOPHIL [1]: 0%
EOSINOPHIL [1]: 0%
ERYTHROCYTE COUNT [1]: 5.51 x10E6/uL
HEMATOCRIT [1]: 33.68%
HEMOGLOBIN [1]: 13.4 G/DL
LEUKOCYTE COUNT [1]: 16.6 x10E3/uL
LYMPHOCYTE [1]: 88.83%
MEAN CORPUSCULAR HEMOGLOBIN [1]: 24.47 pg
MEAN CORPUSCULAR HEMOGLOBIN CONCENTRATION [1]: 39.82 G/DL
MEAN CORPUSCULAR VOLUME [1]: 61.23 fL
MONOCYTE [1]: 0.83%
NEUTROPHIL [1]: 10.33%
NUCLEATED RED BLOOD CELLS [1]: 0 /100WBC
PLATELET COUNT [1]: 1329.67 x10E3/uL
ALANINE AMINOTRANSFERASE [1]: 61.33 u/L
ALBUMIN [1]: 4.18 G/DL
ALKALINE PHOSPHATASE [1]: 332.5 u/L
ASPARTATE AMINOTRANSFERASE [1]: 98.33 u/L
BLOOD UREA NITROGEN [1]: 15.83 mg/dL
CARBON DIOXIDE [1]: 27.83 mmol/L
CHLORIDE [1]: 100 MEQ/L
CHOLESTEROL [1]: 76.17 mg/dL
CREATINE PHOSPHOKINASE [1]: 729.17 u/L
CREATININE [1]: 0.21 mg/dL
GLUCOSE [1]: 151.83 mg/dL
LACTATE DEHYDROGENASE [1]: 484.67 u/L
LIPASE [1]: 10 u/L
PHOSPHORUS [1]: 11.3 mg/dL
POTASSIUM [1]: 6.1 MEQ/L
SODIUM [1]: 142.9 MEQ/L
TOTAL BILIRUBIN [1]: 0.23 mg/dL
TOTAL PROTEIN [1]: 5.68 G/DL
URIC ACID [1]: 1.75 mg/dL
ABSOLUTE BASOPHIL [2]: 0 CELLS/uL
ABSOLUTE EOSINOPHIL [2]: 58.67 CELLS/uL
ABSOLUTE LYMPHOCYTE [2]: 15950.83 CELLS/uL
ABSOLUTE MONOCYTE [2]: 172.5 CELLS/uL
ABSOLUTE SEGMENTED NEUTROPHIL [2]: 2551.33 CELLS/uL
BASOPHIL [2]: 0%
EOSINOPHIL [2]: 0.33%
ERYTHROCYTE COUNT [2]: 5.5 x10E6/uL
HEMATOCRIT [2]: 34.05%
HEMOGLOBIN [2]: 13.42 G/DL
LEUKOCYTE COUNT [2]: 18.73 x10E3/uL
LYMPHOCYTE [2]: 84.5%
MEAN CORPUSCULAR HEMOGLOBIN [2]: 24.42 pg
MEAN CORPUSCULAR HEMOGLOBIN CONCENTRATION [2]: 39.42 G/DL
MEAN CORPUSCULAR VOLUME [2]: 61.97 fL
MONOCYTE [2]: 1%
NEUTROPHIL [2]: 14.17%
NUCLEATED RED BLOOD CELLS [2]: 0.33 /100WBC
PLATELET COUNT [2]: 1143.17 x10E3/uL
ALANINE AMINOTRANSFERASE [2]: 57 u/L
ALBUMIN [2]: 4.17 G/DL
ALKALINE PHOSPHATASE [2]: 347.33 u/L
ASPARTATE AMINOTRANSFERASE [2]: 93.67 u/L
BLOOD UREA NITROGEN [2]: 15.67 mg/dL
CARBON DIOXIDE [2]: 27.17 mmol/L
CHLORIDE [2]: 104.33 MEQ/L
CHOLESTEROL [2]: 69.5 mg/dL
CREATINE PHOSPHOKINASE [2]: 317.17 u/L
CREATININE [2]: 0.2 mg/dL
GLUCOSE [2]: 162.33 mg/dL
LACTATE DEHYDROGENASE [2]: 408.67 u/L
LIPASE [2]: 10.17 u/L
PHOSPHORUS [2]: 11.08 mg/dL
POTASSIUM [2]: 6.36 MEQ/L
SODIUM [2]: 146.07 MEQ/L
TOTAL BILIRUBIN [2]: 0.22 mg/dL
TOTAL PROTEIN [2]: 5.92 G/DL
URIC ACID [2]: 1.47 mg/dL
ABSOLUTE BASOPHIL [3]: 0 CELLS/uL
ABSOLUTE EOSINOPHIL [3]: 0 CELLS/uL
ABSOLUTE LYMPHOCYTE [3]: 15609 CELLS/uL
ABSOLUTE MONOCYTE [3]: 50.67 CELLS/uL
ABSOLUTE SEGMENTED NEUTROPHIL [3]: 2173.67 CELLS/uL
BASOPHIL [3]: 0%
EOSINOPHIL [3]: 0%
ERYTHROCYTE COUNT [3]: 5.42 x10E6/uL
HEMATOCRIT [3]: 34.33%
HEMOGLOBIN [3]: 13.33 G/DL
LEUKOCYTE COUNT [3]: 17.83 x10E3/uL
LYMPHOCYTE [3]: 87.67%
MEAN CORPUSCULAR HEMOGLOBIN [3]: 24.6 pg
MEAN CORPUSCULAR HEMOGLOBIN CONCENTRATION [3]: 38.9 G/DL
MEAN CORPUSCULAR VOLUME [3]: 63.3 fL
MONOCYTE [3]: 0.33%
NEUTROPHIL [3]: 12%
NUCLEATED RED BLOOD CELLS [3]: 0 /100WBC
PLATELET COUNT [3]: 1271.33 x10E3/uL
ALANINE AMINOTRANSFERASE [3]: 68.33 u/L
ALBUMIN [3]: 3.87 G/DL
ALKALINE PHOSPHATASE [3]: 322.67 u/L
ASPARTATE AMINOTRANSFERASE [3]: 105.67 u/L
BLOOD UREA NITROGEN [3]: 16 mg/dL
CARBON DIOXIDE [3]: 30.33 mmol/L
CHLORIDE [3]: 103 MEQ/L
CHOLESTEROL [3]: 72.67 mg/dL
CREATINE PHOSPHOKINASE [3]: 481 u/L
CREATININE [3]: 0.24 mg/dL
GLUCOSE [3]: 139.67 mg/dL
LACTATE DEHYDROGENASE [3]: 535 u/L
LIPASE [3]: 10 u/L
PHOSPHORUS [3]: 11.37 mg/dL
POTASSIUM [3]: 6.77 MEQ/L
SODIUM [3]: 145.27 MEQ/L
TOTAL BILIRUBIN [3]: 0.2 mg/dL
TOTAL PROTEIN [3]: 5.3 G/DL
URIC ACID [3]: 1.6 mg/dL
